tested on: STAT1 (phosphorylated at Tyr701) in NCI-H1373 cells; assay: Phospho-STAT1 (Tyr701) LANCE Ultra TR-FRET detection assay; format: cell-based; details: Homo sapiens, NCI-H1373, 48 h, induction of pSTAT1 in NCI-H1373 cells, 48 hours incubation; normalized to 10 uM positive control and DMSO; 4-parameter fit; read-out: NH1373 pSTAT1 EC50
Summary of the method: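 Endogenous pSTAT1 (Tyr701) induction measured in NCI-H1373 cells seeded onto compound and incubated 48 h at 37 °C. Lysates assayed by LANCE Ultra sandwich TR-FRET; 665/620 nm ratio normalized to 10 uM reference […] (positive) and DMSO (negative). EC50 from 4-parameter fit.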

Row | Structure (SMILES) | EC50 [nM]
1 | [2H]C([2H])([2H])Oc1cnc(-c2cc3c(F)cn(C[C@@H]4CCC[C@H](Oc5cn[nH]c(=O)c5C(F)(F)F)C4)c(=O)c3c(F)c2F)nc1 [Example 51, 4,7,8-trifluoro-6-(5-(methoxy-d3)pyrimidin-2-yl)-2-(((1R,3S)-3-((6-oxo-5-(trifluoromethyl)-1,6-dihydropyridazin-4-yl)oxy)cyclohexyl)methyl)isoquinolin-1(2H)-one] | 1.22
2 | O=c1[nH]ncc(O[C@H]2CCC[C@@H](Cn3cc(F)c4cc(-c5ncc(C(F)F)cn5)c(F)c(F)c4c3=O)C2)c1C(F)(F)F [Example 52, 6-(5-(difluoromethyl)pyrimidin-2-yl)-4,7,8-trifluoro-2-(((1R,3S)-3-((6-oxo-5-(trifluoromethyl)-1,6-dihydropyridazin-4-yl)oxy)cyclohexyl)methyl)isoquinolin-1(2H)-one] | 1.22
3 | COc1cnc(-c2cc3c(F)cn(C[C@@H]4CCC[C@H](Oc5cn[nH]c(=O)c5C(F)(F)F)C4)c(=O)c3c(F)c2F)nc1 [Example 53, 4,7,8-trifluoro-6-(5-methoxypyrimidin-2-yl)-2-(((1R,3S)-3-((6-oxo-5-(trifluoromethyl)-1,6-dihydropyridazin-4-yl)oxy)cyclohexyl)methyl)isoquinolin-1(2H)-one] | 2.09
4 | O=c1[nH]ncc(O[C@H]2CCC[C@@H](Cn3ccc4cc(-c5ncc(C(F)F)cn5)c(F)c(F)c4c3=O)C2)c1C(F)(F)F [Example 54, 6-(5-(difluoromethyl)pyrimidin-2-yl)-7,8-difluoro-2-(((1R,3S)-3-((6-oxo-5-(trifluoromethyl)-1,6-dihydropyridazin-4-yl)oxy)cyclohexyl)methyl)isoquinolin-1(2H)-one] | 2.38
5 | CC(C)(O)c1cnc(-c2cc3ccn(C[C@@H]4CCC[C@H](Oc5cn[nH]c(=O)c5C(F)(F)F)C4)c(=O)c3c(F)c2F)nc1 [Example 55, 7,8-difluoro-6-(5-(2-hydroxypropan-2-yl)pyrimidin-2-yl)-2-(((1R,3S)-3-((6-oxo-5-(trifluoromethyl)-1,6-dihydropyridazin-4-yl)oxy)cyclohexyl)methyl)isoquinolin-1(2H)-one] | 1.56
6 | CC(F)(F)c1cnc(-c2cc3ccn(C[C@@H]4CCC[C@H](Oc5cn[nH]c(=O)c5C(F)(F)F)C4)c(=O)c3c(F)c2F)nc1 [Example 56, 6-(5-(1,1-difluoroethyl)pyrimidin-2-yl)-7,8-difluoro-2-(((1R,3S)-3-((6-oxo-5-(trifluoromethyl)-1,6-dihydropyridazin-4-yl)oxy)cyclohexyl)methyl)isoquinolin-1(2H)-one] | 0.915
7 | CC(C)(O)c1cnc(-c2cc3ccn(C[C@@H]4CCC[C@H](Oc5cn[nH]c(=O)c5C(F)(F)F)C4)c(=O)c3cc2F)nc1 [Example 57, 7-fluoro-6-(5-(2-hydroxypropan-2-yl)pyrimidin-2-yl)-2-(((1R,3S)-3-((6-oxo-5-(trifluoromethyl)-1,6-dihydropyridazin-4-yl)oxy)cyclohexyl)methyl)isoquinolin-1(2H)-one] | 1.82
8 | COc1cnc(-c2cc3c(Cl)cn(C[C@@H]4CCC[C@H](Nc5cn[nH]c(=O)c5C(F)(F)F)C4)c(=O)c3cc2F)nc1 [Example 58, 4-chloro-7-fluoro-6-(5-methoxypyrimidin-2-yl)-2-[[(1R,3S)-3-[[6-oxo-5-(trifluoromethyl)-1H-pyridazin-4-yl]amino]cyclohexyl]methyl]isoquinolin-1-one] | 5.91
9 | O=c1[nH]ncc(N[C@H]2CCC[C@@H](Cn3cc(Cl)c4cc(-c5nc6ccccn6n5)c(F)cc4c3=O)C2)c1C(F)(F)F [Example 59, 6-([1,2,4]triazolo[1,5-a]pyridin-2-yl)-4-chloro-7-fluoro-2-(((1R,3S)-3-((6-oxo-5-(trifluoromethyl)-1,6-dihydropyridazin-4-yl)amino)cyclohexyl)methyl)isoquinolin-1(2H)-one] | 2.02
10 | O=c1[nH]ncc(N[C@H]2CCC[C@@H](Cn3cc(Cl)c4cc(-c5ncc(C(F)F)cn5)c(F)cc4c3=O)C2)c1C(F)(F)F [Example 60, 4-chloro-6-(5-(difluoromethyl)pyrimidin-2-yl)-7-fluoro-2-(((1R,3S)-3-((6-oxo-5-(trifluoromethyl)-1,6-dihydropyridazin-4-yl)amino)cyclohexyl)methyl)isoquinolin-1(2H)-one] | 6.23
11 | O=c1[nH]ncc(N[C@H]2CCC[C@@H](Cn3cc(Cl)c4cc(-c5ncc(C(F)F)cn5)c(F)c(F)c4c3=O)C2)c1C(F)(F)F [Example 61] | 1.33
12 | O=c1[nH]ncc(N[C@H]2C[C@@H](O)C[C@@H](Cn3ccc4cc(-c5ncc(C(F)(F)F)cn5)c(F)cc4c3=O)C2)c1C(F)(F)F [Example 62, 7-fluoro-2-[[(1S,3S,5R)-3-hydroxy-5-[[6-oxo-5-(trifluoromethyl)-1H-pyridazin-4-yl]amino]cyclohexyl]methyl]-6-[5-(trifluoromethyl)pyrimidin-2-yl]isoquinolin-1-one] | 90
13 | O=c1[nH]ncc(N[C@H]2CCC[C@@](O)(Cn3ccc4cc(-c5ncc(C(F)(F)F)cn5)c(F)cc4c3=O)C2)c1C(F)(F)F [Example 63, 7-fluoro-2-[[(1S,3S)-1-hydroxy-3-[[6-oxo-5-(trifluoromethyl)-1H-pyridazin-4-yl]amino]cyclohexyl]methyl]-6-[5-(trifluoromethyl)pyrimidin-2-yl]isoquinolin-1-one] | 1.87
14 | O=c1[nH]ncc(N[C@H]2CCO[C@@H](Cn3ccc4cc(-c5nc6ccccn6n5)c(F)cc4c3=O)C2)c1C(F)(F)F [Example 64, 7-fluoro-2-[[(2R,4S)-4-[[6-oxo-5-(trifluoromethyl)-1H-pyridazin-4-yl]amino]tetrahydropyran-2-yl]methyl]-6-([1,2,4]triazolo[1,5-a]pyridin-2-yl)isoquinolin-1-one] | 36.1
15 | O=c1[nH]ncc(N[C@H]2CCO[C@@H](Cn3ccc4cc(-c5nc6ccccn6n5)c(F)c(F)c4c3=O)C2)c1C(F)(F)F [Example 65, 7,8-difluoro-2-[[(2R,4S)-4-[[6-oxo-5-(trifluoromethyl)-1H-pyridazin-4-yl]amino]tetrahydropyran-2-yl]methyl]-6-([1,2,4]triazolo[1,5-a]pyridin-2-yl)isoquinolin-1-one1-one] | 20.3
16 | O=C1c2cc(F)c(-c3ncc(C(F)(F)F)cn3)cc2CCN1C[C@@H]1CCC[C@H](Nc2cn[nH]c(=O)c2C(F)(F)F)C1 [Example 69, 7-fluoro-2-[[(1R,3S)-3-[[6-oxo-5-(trifluoromethyl)-1H-pyridazin-4-yl]amino]cyclohexyl]methyl]-6-[5-(trifluoromethyl)pyrimidin-2-yl]-3,4-dihydroisoquinolin-1-one] | 4.56
17 | COc1cnc(-c2cc3c(cc2F)C(=O)N(C[C@@H]2CCC[C@H](Nc4cn[nH]c(=O)c4C(F)(F)F)C2)CC3)nc1 [Example 70, 7-fluoro-6-(5-methoxypyrimidin-2-yl)-2-(((1R,3S)-3-((6-oxo-5-(trifluoromethyl)-1,6-dihydropyridazin-4-yl)amino)cyclohexyl)methyl)-3,4-dihydroisoquinolin-1(2H)-one] | 11.1
18 | [2H]C([2H])([2H])Oc1cnc(-c2cc3c(cc2F)C(=O)N(C[C@@H]2CCC[C@H](Nc4cn[nH]c(=O)c4C(F)(F)F)C2)CC3)nc1 [Example 71, 7-fluoro-2-[[(1R,3S)-3-[[6-oxo-5-(trifluoromethyl)-1H-pyridazin-4-yl]amino]cyclohexyl]methyl]-6-[5-(trideuteriomethoxy)pyrimidin-2-yl]-3,4-dihydroisoquinolin-1-one] | 7.6
19 | O=C1c2cc(F)c(-c3ncc(C(F)F)cn3)cc2CCN1C[C@@H]1CCC[C@H](Nc2cn[nH]c(=O)c2C(F)(F)F)C1 [Example 72, 6-(5-(difluoromethyl)pyrimidin-2-yl)-7-fluoro-2-(((1R,3S)-3-((6-oxo-5-(trifluoromethyl)-1,6-dihydropyridazin-4-yl)amino)cyclohexyl)methyl)-3,4-dihydroisoquinolin-1(2H)-one] | 3.74
20 | CC(C)(O)c1cnc(-c2cc3c(cc2F)C(=O)N(C[C@@H]2CCC[C@H](Nc4cn[nH]c(=O)c4C(F)(F)F)C2)CC3)nc1 [Example 73, 7-fluoro-6-(5-(2-hydroxypropan-2-yl)pyrimidin-2-yl)-2-(((1R,3S)-3-((6-oxo-5-(trifluoromethyl)-1,6-dihydropyridazin-4-yl)amino)cyclohexyl)methyl)-3,4-dihydroisoquinolin-1(2H)-one] | 7.8
21 | O=C1c2cc(F)c(-c3ncc(C(F)(F)F)cn3)cc2CN1C[C@@H]1CCC[C@H](Nc2cn[nH]c(=O)c2C(F)(F)F)C1 [Example 74, 6-fluoro-2-(((1R,3S)-3-((6-oxo-5-(trifluoromethyl)-1,6-dihydropyridazin-4-yl)amino)cyclohexyl)methyl)-5-(5-(trifluoromethyl)pyrimidin-2-yl)isoindolin-1-one] | 9.03
